Values of other authors as cited in patent US20190060287A1 (ADARE PHARMACEUTICALS, INC., priority 2017, published 2019).
Where two headings read alike, the source gives them in different places.

What was measured:
[1] = multiple dose controlled clinical studies

- patients reporting that they had been drowsy during the 6 hour study (single dose 8 mg): 76%
- patients reporting that they had been drowsy during the 6 hour study (single dose 16 mg): 92%
Compound: Clc1ccc2nsnc2c1NC1=NCCN1 [tizanidine, Tizanidine]
- patients reporting sedation as a secondary event ([1]; patients receiving any dose of tizanidine): 48%
- cases in which the sedation was rated as severe ([1]; share of the sedation cases): 10%
